Values quoted from earlier work as cited in patent US7604797B2, “Compositions and methods for treating burns” (BioMechanisms Inc., priority 2003, dated 2009).
Where two headings read alike, the source gives them in different places. Where a SMILES comes first, the peptide text is derived from it. Bridges are numbered along the chain shown (N, C = ends). [ ]: non-standard residue; d: D form. The star is where a group is joined. Ileψ(thiazoline)Cys = CC[C@H](C)[C@H](N)C1=N[C@H](C(=O)*)CS1; dOrn = NCCC[C@@H](N)C(=O)O

Experiments:
[1] = test system: gram-positive and gram-negative organisms, fungi; details: topical use on burns
[2] = test system: burn patients
[3] = test system: malignant tumors; details: for Tumor response in patients: acute lymphocytic leukemia, Burkitt's lymphoma, breast carcinoma, mycosis fungoides, epidermoid head and neck cancer, osteogenic sarcoma; for Toxicity of chemotherapy: partly related to polyglutamate formation

In the case of Polymyxin B Sulfate, the “Benefits: effectiveness against microorganisms” value (shortened to “Benefits: effectiveness”) [1] is listed as “Effective agains gram-” and the “Toxicity and adverse effects in use” value ([2]; topical use on burns) is listed as “microorganisms. Non-toxic”.

In the case of `Nc1nc(N)c2nc(CNc3ccc(C(=O)NC(CCC(=O)O)C(=O)O)cc3)cnc2n1` (stereo not shown) [AMT, 4-amino-4-deoxy-pteroylglutamic acid], the “Tumor response in patients” value [3] is listed as “good to excellent tumor response” and the Toxicity of chemotherapy [3] is listed as “a variety of toxicities”.

For Neomycin, the “Benefits: effectiveness” value [1] is given as “Particularly effective”.

In the case of `CN(Cc1cnc2nc(N)nc(N)c2n1)c1ccc(C(=O)NC(CCC(=O)O)C(=O)O)cc1` (stereo not shown) [MTX, 4-amino-4-deoxy-N^10-methyl-pteroylglutamic acid], the “Tumor response in patients” value [3] is listed as “good to excellent tumor response” and the Toxicity of chemotherapy [3] is listed as “a variety of toxicities”.

For `C[C@@H]1[C@H](O)[C@@H](C)/C=C/C=C/CC/C=C/C=C/C=C/C=C/C(O[C@H]2O[C@H](C)[C@@H](O)[C@H](N)[C@@H]2O)CC2O[C@](O)(CC(O)C(O)CCC(O)CC(O)CC(O)CC(=O)O[C@H]1C)CC(O)C2C(=O)O` (stereo partly shown) [Nystatin], the “Benefits: effectiveness” value [1] is given as “Effective against the most”.

In the case of `CC[C@H](C)[C@H](N)C1=N[C@H](C(=O)N[C@@H](CC(C)C)C(=O)N[C@H](CCC(=O)O)C(=O)N[C@H](C(=O)N[C@H]2CCCCNC(=O)[C@H](CC(N)=O)NC(=O)[C@@H](CC(=O)O)NC(=O)[C@H](Cc3cnc[nH]3)NC(=O)[C@@H](Cc3ccccc3)NC(=O)[C@H]([C@@H](C)CC)NC(=O)[C@@H](CCCN)NC2=O)[C@@H](C)CC)CS1` [Bacitracin] ({Ileψ(thiazoline)Cys}-L[dE]IK[dOrn]I[dF]H[dD]N; lactam 4-C), the “Benefits: effectiveness” value [1] is given as “Effective against gram-” and the “Toxicity and adverse effects in use” value ([2]; in vivo) is given as “Safe, non-toxic”.
